Measured values as given in patent publication US8541462B2, “Tetrahydrocarbazole derivatives as ligands of G-protein coupled receptors” (AEterna Zentaris GmbH, priority 2007, dated 2013).

Biological target: T1, LHRH receptor (endogenous GnRH receptor of alpha T3-1 cell line) (Mus musculus, UniProt Q01776)
T1 construct: alpha T3-1 cell line with endogenous GnRH receptor expression; endogenous in cells; host or cells: alpha T3-1 cells (intact cell suspension)
T1 sequence (Q01776 1-327): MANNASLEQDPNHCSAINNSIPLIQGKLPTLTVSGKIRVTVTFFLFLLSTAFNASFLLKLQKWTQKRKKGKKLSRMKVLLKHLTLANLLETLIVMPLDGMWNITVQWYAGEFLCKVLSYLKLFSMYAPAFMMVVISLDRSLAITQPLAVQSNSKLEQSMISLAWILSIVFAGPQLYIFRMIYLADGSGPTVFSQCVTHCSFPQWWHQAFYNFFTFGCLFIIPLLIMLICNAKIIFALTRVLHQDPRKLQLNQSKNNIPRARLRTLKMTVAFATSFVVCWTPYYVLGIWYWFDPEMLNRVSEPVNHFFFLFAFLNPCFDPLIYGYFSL
Assay: LHRH-receptor binding assay (displacement of [125I] cetrorelix on alpha T3-1 cells)
Conditions: WO 2006/005484-substance 75 = 100%
Procedure: For LHRH receptor binding studies, an assay system using alpha T3-1 cell line with endogenous GnRH receptor expression was employed (Windle et al., Mol. Endocrinol. 1990, 4(4): 597-603).
Iodinated cetrorelix was used as a tracer with about 80% of peptide capable of specific receptor association.
For displacement binding assays, the cells were incubated with approximately 200 pM [^125l] cetrorelix and different concentrations of unlabeled test compounds as competitor. The cell suspension in binding medium was layered on top of silicon/paraffin oil, incubated for 60 min at 37° C. and separated by centrifugation. The tips of the tubes containing the cell pellet were cut off, subsequently cell pellet and supernatant were analyzed by gamma-radiation analysis.
The amount of unspecific binding was determined by including unlabeled cetrorelix at 1 μM final concentration and was typically ≦10% of total binding. IC50 values were calculated by using the GraphPad Prism analysis program (GraphPad Software Inc.).
With `CCC(C)[C@H](NC(=O)Cc1ccccc1F)C(=O)N[C@]1(C(=O)N[C@H](C(=S)NCc2ccncc2)C(C)CC)CCc2[nH]c3c(C(F)(F)F)cccc3c2C1` (stereo partly drawn) [Compound 60, (R)-3-{(S)-2-[2-(2-Fluoro-phenyl)-acetylamino]-3-methyl-pentanoylamino}-8-trifluoromethyl-2,3,4,9-tetrahydro-1H-carbazole-3-carboxylic acid {(S)-2-methyl-1-[(pyridin-4-ylmethyl)-thiocarbamoyl]-butyl}-amide] the “Normalized Affinity” value was 247%.
For `CCC(C)[C@H](NC(=O)Cc1ccccc1F)C(=O)N[C@]1(C(=O)N[C@H](C(=O)Nc2ccc(OC)c(O)c2)C(C)CC)CCc2[nH]c3c(C(F)(F)F)cccc3c2C1` (stereo partly drawn) [Compound 69, (R)-3-{(S)-2-[2-(2-Fluoro-phenyl)-acetylamino]-3-methyl-pentanoylamino}-8-trifluoromethyl-2,3,4,9-tetrahydro-1H-carbazole-3-carboxylic acid [(S)-1-(3-hydroxy-4-methoxy-phenylcarbamoyl)-2-methyl-butyl]-amide], the “Normalized Affinity” value was 529%.
In the case of `CCC(C)[C@H](NC(=O)Cc1ccccc1F)C(=O)N[C@]1(C(=O)N[C@H](C(=O)Nc2ccc(OC)cc2O)C(C)CC)CCc2[nH]c3c(C(F)(F)F)cccc3c2C1` (stereo partly drawn) [Compound 71, (R)-3-{(S)-2-[2-(2-Fluoro-phenyl)-acetylamino]-3-methyl-pentanoylamino}-8-trifluoromethyl-2,3,4,9-tetrahydro-1H-carbazole-3-carboxylic acid [(S)-1-(2-hydroxy-4-methoxy-phenylcarbarnoyl)-2-methyl-butyl]-amide], the “Normalized Affinity” value is reported as 411%.
In the case of `CCC(C)[C@H](NC(=O)Cc1ccccc1F)C(=O)N[C@]1(C(=O)N[C@H](C(=S)NCCCn2ccnc2)C(C)CC)CCc2[nH]c3c(C(F)(F)F)cccc3c2C1` (stereo partly drawn) [Compound 74, (R)-3-{(S)-2-[2-(2-Fluoro-phenyl)-acetylamino]-3-methyl-pentanoylamino}-8-trifluoromethyl-2,3,4,9-tetrahydro-1H-carbazole-3-carboxylic acid [(S)-1-(3-imidazol-1-yl-propylthiocarbamoyl)-2-methyl-butyl]-amide], the “Normalized Affinity” value is reported as 247%.
With `CCC(C)[C@H](NC(=O)Cc1ccccc1F)C(=O)N[C@]1(C(=O)N[C@H](C(=S)NCc2nnc(C)o2)C(C)CC)CCc2[nH]c3c(C(F)(F)F)cccc3c2C1` (stereo partly drawn) [compound 118, (R)-3-{(S)-2-[2-(2-Fluoro-phenyl)-acetylamino]-3-methyl-pentanoylamino}-8-trifluoromethyl-2,3,4,9-tetrahydro-1H-carbazole-3-carboxylic acid {(S)-2-methyl-1-[(5-methyl-[1,3,4]oxadiazol-2-ylmethyl)-thiocarbamoyl]-butyl}-amide] the “Normalized Affinity” value was 285%.
In the case of `CCC(C)[C@H](NC(=O)Cc1ccccc1F)C(=O)N[C@]1(C(=O)N[C@H](C(=O)Nc2nnn(C(C)(C)C)n2)C(C)CC)CCc2[nH]c3c(C(F)(F)F)cccc3c2C1` (stereo partly drawn) [compound 178, (R)-3-{(S)-2-[2-(2-Fluoro-phenyl)-acetylamino]-3-methyl-pentanoylamino}-8-trifluoromethyl-2,3,4,9-tetrahydro-1H-carbazole-3-carboxylic acid [(S)-1-(2-tert-butyl-2H-tetrazol-5-ylcarbamoyl)-2-methyl-butyl]-amide], the “Normalized Affinity” value is reported as 370%.

Tested on: not listed separately
Assay: Metabolic stability testing in liver microsomes
Format: in vitro ADME
Conditions: mixed-gender human liver microsomes, 1 mg microsomal protein/mL, initial concentration 10 μM, 60 minutes at 37° C.; WO 2006/005484-substance 7 = 100%
Procedure: Subcellular fractions of different tissues can be prepared easily by ultracentrifugation. Most commonly these are prepared from the liver of animals and human donors to gain information about the potential hepatic clearance of compounds (first-pass elimination of drugs). Human or animal (e.g. dog, mouse, rat) subcellular fraction like liver microsomes, or possibly the fraction called S9 have therefore become a very commonly and widely used as an in vitro model to investigate mainly cytochrome P450 dependent phase I (but also phase II) metabolism that takes place in the liver.
In order to reflect the standard proportion of the enzymes in human and animal livers, liver microsomes are usually pooled from a number of […] of the same sex (or mixed-gender). By supplementing the liver microsomes with relevant cofactors and other components it is possible to investigate and distinguish between CYPs, flavin-containing monooxygenase (FMO) and UDP-glucuronosyltransferase (UGT) activities.
Selected compounds of the invention were tested for their stability in mixed-gender human liver microsomes and compared to pertinent prior art compounds.
Under the test conditions applied (1 mg microsomal protein/mL, initial concentration of 10 μM, and incubation for 60 minutes at 37° C.) the following normalized results were obtained.
For `CCC(C)[C@H](NC(=O)Cc1ccccc1F)C(=O)N[C@]1(C(=O)N[C@H](C(=O)Nc2ccc(OC)c(O)c2)C(C)CC)CCc2[nH]c3c(C(F)(F)F)cccc3c2C1` (stereo partly drawn) [Compound 69, (R)-3-{(S)-2-[2-(2-Fluoro-phenyl)-acetylamino]-3-methyl-pentanoylamino}-8-trifluoromethyl-2,3,4,9-tetrahydro-1H-carbazole-3-carboxylic acid [(S)-1-(3-hydroxy-4-methoxy-phenylcarbamoyl)-2-methyl-butyl]-amide], the Normalized microsomal stability was 1041%.
`CCC(C)[C@H](NC(=O)Cc1ccccc1F)C(=O)N[C@]1(C(=O)N[C@H](C(=S)NCCCn2ccnc2)C(C)CC)CCc2[nH]c3c(C(F)(F)F)cccc3c2C1` (stereo partly drawn) [Compound 74, (R)-3-{(S)-2-[2-(2-Fluoro-phenyl)-acetylamino]-3-methyl-pentanoylamino}-8-trifluoromethyl-2,3,4,9-tetrahydro-1H-carbazole-3-carboxylic acid [(S)-1-(3-imidazol-1-yl-propylthiocarbamoyl)-2-methyl-butyl]-amide] gave a Normalized microsomal stability of 1889%.
With `CCC(C)[C@H](NC(=O)Cc1ccccc1F)C(=O)N[C@]1(C(=O)N[C@H](C(=O)NNC(=O)c2ccccc2)C(C)CC)CCc2[nH]c3c(C(F)(F)F)cccc3c2C1` (stereo partly drawn) [compound 242, (R)-3-{(S)-2-[2-(2-Fluoro-phenyl)-acetylamino]-3-methyl-pentanoylamino}-8-trifluoromethyl-2,3,4,9-tetrahydro-1H-carbazole-3-carboxylic acid [(S)-1-(N′-benzoyl-hydrazinocarbonyl)-2-methyl-butyl]-amide] the Normalized microsomal stability was 1322%.
Work on `CCC(C)[C@H](NC(=O)NCc1ccccc1F)C(=O)N[C@]1(C(=O)N[C@H](C(=O)NNc2ccccc2)C(C)CC)CCc2[nH]c3c(C(F)(F)F)cccc3c2C1` (stereo partly drawn) [compound 244, (R)-3-{(S)-2-[3-(2-Fluoro-benzyl)-ureido]-3-methyl-pentanoylamino}-8-trifluoromethyl-2,3,4,9-tetrahydro-1H-carbazole-3-carboxylic acid [(S)-2-methyl-1-(N′-phenyl-hydrazinocarbonyl)-butyl]-amide] yielded a Normalized microsomal stability of 1096%.
`CC[C@H](C)[C@H](NC(=O)Cc1ccccc1F)C(=O)N[C@]1(C(=O)N[C@H](c2nc(-c3ccccc3)cs2)[C@@H](C)CC)CCc2[nH]c3c(C(F)(F)F)cccc3c2C1` [compound 249, (R)-3-{(2S,3S)-2-[2-(2-Fluoro-phenyl)-acetylamino]-3-methyl-pentanoylamino}-8-trifluoromethyl-2,3,4,9-tetrahydro-1H-carbazole-3-carboxylic acid [(1S,2S)-2-methyl-1-(4-phenyl-thiazol-2-yl)-butyl]-amide] showed a Normalized microsomal stability of 1580%.
In the case of `CC[C@H](C)[C@H](NC(=O)Cc1ccccc1F)C(=O)N[C@]1(C(=O)N[C@H](c2nc(-c3ccc(OC)cc3)cs2)[C@@H](C)CC)CCc2[nH]c3c(C(F)(F)F)cccc3c2C1` [compound 250, (R)-3-{(2S,3S)-2-[2-(2-Fluoro-phenyl)-acetylamino]-3-methyl-pentanoylamino}-8-trifluoromethyl-2,3,4,9-tetrahydro-1H-carbazole-3-carboxylic acid {(1S,2S)-1-[4-(4-methoxy-phenyl)-thiazol-2-yl]-2-methyl-butyl}-ami], the Normalized microsomal stability is reported as 1491%.
Compound `CC[C@H](C)[C@H](NC(=O)Cc1ccccc1F)C(=O)N[C@]1(C(=O)N[C@H](c2nc(C(=O)O)cs2)[C@@H](C)CC)CCc2[nH]c3c(C(F)(F)F)cccc3c2C1` [compound 256, 2-{(1S,2S)-1-[((R)-3-{(2S,3S)-2-[2-(2-Fluoro-phenyl)-acetylamino]-3-methyl-pentanoylamino}-8-trifluoromethyl-2,3,4,9-tetrahydro-1H-carbazole-3-carbonyl)-amino]-2-methyl-butyl}-thiazole-4-carboxylic acid] has a Normalized microsomal stability of 1194%.
`CCOC(=O)c1csc([C@@H](NC(=O)[C@@]2(NC(=O)[C@@H](NC(=O)NCc3ccccc3F)[C@@H](C)CC)CCc3[nH]c4c(C(F)(F)F)cccc4c3C2)[C@@H](C)CC)n1` [compound 258, 2-{(1S,2S)-1-[((R)-3-{(2S,3S)-2-[3-(2-Fluoro-benzyl)-ureido]-3-methyl-pentanoylamino}-8-trifluoromethyl-2,3,4,9-tetrahydro-1H-carbazole-3-carbonyl)-amino]-2-methyl-butyl}-thiazole-4-carboxylic acid ethyl ester] showed a Normalized microsomal stability of 1215%.
